Earlier results on one compound are cited in US8895557B2, “Pharmaceutical formulations of ecteinascidin compounds” (Pharma Mar, S.A., Sociedad Unipersonal, priority 2004, dated 2014).

Series [1] concerns human tumour xenografts, including melanoma and ovarian and breast carcinoma. As to conditions: human tumour xenografts in athymic mice.
For series [2], the system named is sarcoma and breast and ovarian carcinoma. The note with it: phase I, patients with sarcoma and breast and ovarian carcinoma.
For series [3] the following is noted: mannitol/phosphate lyophilised product reconstituted with 5 ml Water for Injection, ambient temperature.

SMILES strings stand for the structures.

For the compound `COc1cc2c(cc1O)CCN[C@]21CS[C@@H]2c3c(OC(C)=O)c(C)c4c(c3[C@H](COC1=O)N1C2C2c3c(cc(C)c(OC)c3O)C[C@@H]([C@@H]1O)N2C)OCO4` (stereo partly shown) [ET-743, Ecteinascidin 743], the aqueous solubility entry is “limited aqueous solubility”. The antineoplastic activity entry in series [1] is given as “potent antineoplastic activity”. Besides, in series [2], the clinical responses result is “promising responses were observed”. Also, the “time for which the reconstituted solution is stable” value in series [3] is on record as “up to 24 h”.
